Laboratory results reported in patent US20240316045A1, “CYCLOPROPYLAMIDE COMPOUNDS AGAINST PARASITES IN FISH” (Intervet Inc., priority 2021, published 2024).
Like-named read-outs stand apart in the source and are kept apart here.

Legend:
[1] = test system: Copepodids (juvenile sea lice stage of Lepeophtheirus salmonis); assay: Juvenile sea lice contact assay; details: read-out: Sea lice inhibition (% of dead+damaged copepodids)
Experimental: Copepodids (juvenile sea lice stage of Lepeophtheirus salmonis) were exposed to seawater spiked with declining concentrations of a test compound (dissolved in a DMSO sea-water mixture). Sea lice inhibition (% of dead+damaged copepodids) was assessed after approximately 24 hours of continuous exposure. The vitality of used parasites was confirmed in a negative (solvent) control group.

[2] = test system: Mobile stages of sea lice (pre-adults, adults of Lepeophtheirus salmonis); assay: Adult sea lice contact assay; details: read-out: EC50 (sea lice inhibition, dead+damaged)
Experimental: Mobile stages of sea lice (i.e., pre-adults, adults of Lepeophtheirus salmonis) were exposed to seawater spiked with declining concentrations of a test compound (dissolved in a PEG sea-water mixture). Sea lice inhibition (% of dead+damaged sea lice) was assessed after approximately 1 and 24 hours of continuous exposure in comparison to a negative (solvent) control group.

Lepeophtheirus salmonis = assay: Salmon in vivo efficacy trial against sea lice, gavage administration; details: in Salmo salar
Experimental: Salmon (Salmo salar) were treated once orally by gavage at a dose of 5 mg/kg bodyweight per fish (Day 0). As formulation DMSO 5%/fish oil 95% was used. Salmon of the negative control group received only the excipients of the formulation.
The fish were infested with Lepeophtheirus salmonis copepodids twice before treatment (i.e., around day −28 and day −3) and once after treatment (i.e., day 17). […]
Efficacy is expressed as a % reduction of sea lice in treated groups versus a control group, using the Abbott's formula.

[3] = test concentration 10 nM, approx. 24 hours continuous exposure
[4] = pre-adult/adult L. salmonis, assessed after approx. 1 and 24 hours, time of EC50 not stated
[5] = test concentration 100 nM, approx. 24 hours continuous exposure
[6] = 168 h, read-out: therapeutic efficacy against (pre-)adult sea lice (% reduction vs control, Abbott), single oral gavage 5 mg/kg, count at day 7, day -28 infestation
[7] = 672 h, read-out: therapeutic efficacy against juvenile sea lice (% reduction vs control, Abbott), single oral gavage 5 mg/kg, count around day 28, day -3 infestation

SMILES | inhibition at 0.01 µM [1, 3] [%] | EC50 [2, 4] [nM] | inhibition in vivo at 5 mg/kg (Lepeophtheirus salmonis; [6]) [%] | inhibition in vivo at 5 mg/kg (Lepeophtheirus salmonis; [7]) [%] | also measured
O=C(Nc1ccc(F)cc1)c1cc(NC(=O)C2C(c3cc(Cl)cc(Cl)c3)C2(Cl)Cl)ccc1F (stereo not shown) [Compound 1003] | – | – | – | – | inhibition at 0.1 µM ([1]; 24 h): ≥ 80%; EC50 [2]: 1 to 25 nM
O=C(Nc1c(F)cccc1F)c1cc(NC(=O)C2C(c3cc(Cl)cc(Cl)c3)C2(Cl)Cl)ccc1Cl (stereo not shown) [Compound 1007] | 80 | 1 to 25 | – | – | –
O=C(Nc1ccncn1)c1cc(NC(=O)[C@H]2[C@H](c3cc(Cl)cc(Cl)c3)C2(Cl)Cl)ccc1Cl [Compound 1039] | – | 1 to 25 | 80 | 80 | inhibition at 0.1 µM [1, 5]: 100%
O=C(Nc1ccc(F)cc1F)c1cc(NC(=O)[C@H]2[C@H](c3ccc(F)c(Cl)c3)C2(Cl)Cl)ccc1Cl [Compound 1087] | – | – | – | – | inhibition at 0.001 µM ([1]; 24 h): 100%; EC50 [2]: 1 to 25 nM
O=C(Nc1ccc(F)cc1)c1cc(NC(=O)[C@H]2[C@H](c3cc(Cl)cc(Cl)c3)C2(Cl)Cl)ccc1F [Compound 1090] | – | – | – | – | inhibition at 0.001 µM ([1]; 24 h): 100%; EC50 [2]: 1 to 10 nM
O=C(Nc1ccc(F)cc1F)c1cc(NC(=O)[C@H]2[C@H](c3cc(F)c(F)c(F)c3)C2(Cl)Cl)ccc1Cl [Compound 1094] | – | 1 to 10 | – | – | –
O=C(Nc1ncc(F)cc1F)c1cc(NC(=O)[C@H]2[C@H](c3cc(Cl)cc(Cl)c3)C2(Cl)Cl)ccc1Cl [Compound 1097] | – | 1 to 10 | – | – | –
Cc1cc(NC(=O)c2cc(NC(=O)[C@H]3[C@H](c4cc(Cl)cc(Cl)c4)C3(Cl)Cl)ccc2Cl)ncc1F [Compound 1098] | – | 1 to 10 | – | – | –
O=C(Nc1ccccc1)c1cc(NC(=O)[C@H]2[C@H](c3cc(Cl)cc(Cl)c3)C2(Cl)Cl)ccc1Cl [Compound 1099] | 100 | 1 to 10 | 80 | 100 | –
Cc1ccccc1NC(=O)c1cc(NC(=O)[C@H]2[C@H](c3cc(Cl)cc(Cl)c3)C2(Cl)Cl)ccc1Cl [Compound 1100] | 100 | 1 to 10 | 100 | 100 | –
Cc1ccc(NC(=O)[C@H]2[C@H](c3cc(Cl)cc(Cl)c3)C2(Cl)Cl)cc1C(=O)Nc1ccc(F)cc1 [Compound 1101] | – | 1 to 10 | – | – | inhibition at 0.1 µM [1, 5]: 100%
O=C(Nc1cnc(F)cc1F)c1cc(NC(=O)[C@H]2[C@H](c3cc(Cl)cc(Cl)c3)C2(Cl)Cl)ccc1Cl [Compound 1366] | – | 1 to 10 | – | – | –
O=C(Nc1c(F)ccnc1F)c1cc(NC(=O)[C@H]2[C@H](c3cc(Cl)cc(Cl)c3)C2(Cl)Cl)ccc1Cl [Compound 1367] | – | 1 to 10 | – | – | –
Cc1c(F)cc(NC(=O)[C@H]2[C@H](c3cc(Cl)cc(Cl)c3)C2(Cl)Cl)cc1C(=O)Nc1ncc(F)cc1F [Compound 1368] | 100 | 1 to 10 | 80 | 100 | –
O=C(Nc1c(F)cccc1F)c1cc(NC(=O)[C@H]2[C@H](c3cc(Cl)cc(Cl)c3)C2(Cl)Cl)ccc1Cl [Compound 1370] | 100 | 1 to 10 | 100 | 100 | –
O=C(Nc1cncnc1)c1cc(NC(=O)[C@H]2[C@H](c3cc(Cl)cc(Cl)c3)C2(Cl)Cl)ccc1Cl [Compound 1371] | 100 | 1 to 10 | 100 | 100 | –
O=C(Nc1ncc(F)cn1)c1cc(NC(=O)[C@H]2[C@H](c3cc(Cl)cc(Cl)c3)C2(Cl)Cl)ccc1Cl [Compound 1372] | – | 1 to 10 | – | – | –
O=C(Nc1ncc(F)cc1F)c1cc(NC(=O)[C@H]2[C@H](c3cc(Cl)cc(Cl)c3)C2(Cl)Cl)ccc1F [Compound 1376] | – | ≤ 1 | 100 | 100 | inhibition at 10 pM ([1]; test concentration 0.01 nM, approx. 24 hours continuous exposure): 100%; inhibition at 0.0001 µM ([1]; test concentration 0.1 nM, approx. 24 hours continuous exposure): 100%
O=C(Nc1ncc(F)cc1F)c1cc(NC(=O)[C@H]2[C@H](c3cc(Cl)cc(Cl)c3)C2(Cl)Cl)cc(F)c1Cl [Compound 1378] | 100 | 1 to 25 | 100 | 100 | –
O=C(Nc1ncc(F)cc1F)c1cccc(NC(=O)[C@H]2[C@H](c3cc(Cl)cc(Cl)c3)C2(Cl)Cl)c1F [Compound 1379] | – | 1 to 25 | – | – | inhibition at 0.1 µM [1, 5]: 100%
O=C(Nc1cnc(F)cc1F)c1cc(NC(=O)[C@H]2[C@H](c3cc(Cl)c(Cl)c(Cl)c3)C2(Cl)Cl)ccc1Cl [Compound 1380] | – | 1 to 10 | – | – | –
O=C(Nc1ncc(F)cc1F)c1cc(NC(=O)C2C(c3cc(Cl)c(F)c(Cl)c3)C2(Cl)Cl)ccc1Cl (stereo not shown) [Compound 1383] | 100 | 1 to 10 | – | – | –
O=C(Nc1ncc(F)cc1F)c1cc(NC(=O)C2C(c3cc(C(F)(F)F)cc(C(F)(F)F)c3)C2(Cl)Cl)ccc1Cl (stereo not shown) [Compound 1385] | 100 | 1 to 10 | – | – | –
O=C(Nc1ccc(F)cc1F)c1cc(NC(=O)C2C(c3cc(C(F)(F)F)cc(C(F)(F)F)c3)C2(Cl)Cl)ccc1F (stereo not shown) [Compound 1387] | – | 1 to 10 | – | – | inhibition at 0.1 µM [1, 5]: 100%
O=C(Nc1ncc(F)cc1F)c1cc(NC(=O)C2C(c3cc(C(F)(F)F)cc(C(F)(F)F)c3)C2(Cl)Cl)cc(F)c1F (stereo not shown) [Compound 1388] | – | 1 to 10 | – | – | inhibition at 0.1 µM [1, 5]: 100%
O=C(Nc1ncc(F)cc1F)c1cc(NC(=O)C2C(c3cc(Cl)cc(C(F)(F)F)c3)C2(Cl)Cl)ccc1Cl (stereo not shown) [Compound 1389] | 100 | ≤ 1 | – | – | –
O=C(Nc1ncc(F)cc1F)c1cc(NC(=O)C2C(c3cc(Cl)cc(Cl)c3)C2(Cl)Cl)cc(F)c1F (stereo not shown) [Compound 1391] | 80 | 1 to 10 | – | – | –
O=C(Nc1ncc(F)cc1F)c1cc(NC(=O)[C@H]2[C@H](c3cc(F)c(F)c(F)c3)C2(Cl)Cl)ccc1Cl [Compound 1392] | – | – | – | – | inhibition at 0.01 µM ([1]; 24 h): 100%; EC50 [2]: ≤ 1 nM; inhibition in vivo at 5 mg/kg (Lepeophtheirus salmonis; po, 168 h, read-out: therapeutic efficacy against (pre-)adult sea lice (% reduction vs control, Abbott)): 100%; inhibition in vivo at 5 mg/kg (Lepeophtheirus salmonis; po, 672 h, read-out: therapeutic efficacy against juvenile sea lice (% reduction vs control, Abbott)): 80%
O=C(Nc1ncc(F)cc1F)c1cc(NC(=O)[C@H]2[C@H](c3cc(F)c(F)c(F)c3)C2(Cl)Cl)ccc1F [Compound 1393] | 100 | ≤ 1 | 100 | 80 | –
O=C(Nc1ncc(F)cc1F)c1c(F)ccc(NC(=O)[C@H]2[C@H](c3cc(Cl)cc(Cl)c3)C2(Cl)Cl)c1F [Compound 1394] | – | 1 to 10 | 100 | 100 | inhibition at 0.1 µM [1, 5]: 100%
